Data on 1 compound can be found in ChEMBL document CHEMBL4834434, “Discovery of Novel and Potent N-Methyl-d-aspartate Receptor Positive Allosteric Modulators with Antidepressant-like Activity in Rodent Models” (J Med Chem, 2021).

Molecules are shown by their SMILES. Activity calls are given as the source filed them. No cut-off for these calls is given here.

In data set [1] the target is Ionotropic glutamate receptor NMDA 1/2C (Homo sapiens) (UniProt Q05586+Q14957). Description: Positive allosteric modulation of GluN1/GluN2C (unknown origin) expressed in HEK293 cells assessed as enhancement of current induced by […] and glycine at 30 uM by whole-cell patch clamp method. In kind it is cell-based. A general note: Patch clamp records ionic current or voltage across a cell membrane.

Data set [2] deals with T1, Glutamate NMDA receptor (Mus musculus) (UniProt P35436+Q91ZU9+Q03391+P35438+Q01097+Q01098+A2AIR5). Description: Positive allosteric modulation of ICR mouse primary cortical neuron NMDA receptor assessed as potentiation of NMDA-induced maximum current by whole-cell patch clamp method. The following applies: Brain. In kind it is tissue-based.
Data set [3] addresses T2, Glutamate NMDA receptor; GRIN1/GRIN2A (Homo sapiens) (UniProt Q05586+Q12879). Description: Effect on GluN1/GluN2A (unknown origin) expressed in HEK293 cells assessed as enhancement of glycine-induced current at 30 uM by whole-cell patch clamp method. It is filed as cell-based.
A short description of data set [4]: Brain to blood partition coefficient of the compound. Particulars: read-out: logBB (converted). In kind it is physicochemical, tissue-based.
Data set [5] deals with Neuron. Description: Effect on GABA receptor in ICR mouse hippocampal neuron assessed as increase in GABA-induced current at 30 uM. In kind it is tissue-based.
Data set [6] deals with Ionotropic glutamate receptor NMDA 1/2D (Homo sapiens) (UniProt Q05586+O15399). Description: Negative allosteric modulation of GluN1/GluN2D (unknown origin) expressed in HEK293 cells assessed as inhibition of current induced by […] and glycine at 30 uM by whole-cell patch clamp method. In kind it is cell-based. Particulars: filed as negative allosteric modulator.
Data set [7] has as its system Mus musculus. Description: Antidepressant activity in icv dosed C57BL/6N mouse assessed as decrease in immobility time measured after 36 mins. It is filed as functional, organism-based.
For data set [8], the target named is T2, Glutamate NMDA receptor; GRIN1/GRIN2A (Homo sapiens). Description: Effect on GluN1/GluN2A (unknown origin) expressed in HEK293 cells assessed as enhancement of NMDA-induced current at 30 uM by whole-cell patch clamp method. It is filed as cell-based.
Data set [9] deals with Glutamate NMDA receptor. Description: Positive allosteric modulation of ICR mouse primary cortical neuron NMDA receptor assessed as potentiation of NMDA-induced current in presence of 30 uM exogenous glycine by whole-cell patch clamp method (reference value: 23.9 +/- 1.3 uM). In kind it is tissue-based, Brain.
The target in data set [10] is T1, Glutamate NMDA receptor (Mus musculus). Description: Positive allosteric modulation of C57BL/6 mouse NMDA receptor assessed as fold change in compound potentiated NMDA-induced current relative to NMDA current alone in presence of saturating glutamate by patch-clamp method. The following applies: Brain, filed as positive allosteric modulator. In kind it is tissue-based.

For data set [11] the target is unchanged. Description: Positive allosteric modulation of C57BL/6 mouse NMDA receptor assessed as fold change in compound potentiated NMDA-induced current relative to NMDA current alone at 30 uM measured after 15 to 30 mins by patch-clamp method. It is filed as tissue-based. The following applies: Brain, filed as positive allosteric modulator, time 15-30 min.
Data set [12] has as its target Glutamate NMDA receptor. Description: Positive allosteric modulation of ICR mouse primary cortical neuron NMDA receptor assessed as potentiation of glycine-induced current in presence of 100 uM NMDA by whole-cell patch clamp method. In kind it is tissue-based, Brain.
Data set [13] addresses Glutamate NMDA receptor; GRIN1/GRIN2B (Homo sapiens) (UniProt Q05586+Q13224). Description: Positive allosteric modulation of GluN1/GluN2B (unknown origin) expressed in HEK293 cells assessed as enhancement of current induced by […] and glycine at 30 uM by whole-cell patch clamp method. It is filed as cell-based.
The target in data set [14] is T2, Glutamate NMDA receptor; GRIN1/GRIN2A (Homo sapiens). Description: Positive allosteric modulation of GluN1/GluN2A (unknown origin) expressed in HEK293 cells assessed as enhancement of current induced by […] and glycine at 30 uM by whole-cell patch clamp method. Particulars: filed as positive allosteric modulator. It is filed as cell-based.
Data set [15] concerns the target Glutamate NMDA receptor. Description: Positive allosteric modulation of C57BL/6 mouse NMDA receptor assessed as potentiation of NMDA-induced current in presence of saturating glutamate by patch-clamp method. In kind it is tissue-based, Brain.
In data set [16] the target is T1, Glutamate NMDA receptor (Mus musculus). Description: Positive allosteric modulation of ICR mouse primary cortical neuron NMDA receptor assessed as potentiation of NMDA-induced current at 10 uM in absence of exogenous glycine/D-serine by whole-cell patch clamp method. In kind it is tissue-based.
For data set [17] the target is unchanged. Description: Positive allosteric modulation of C57BL/6 mouse NMDA receptor assessed as potentiation of NMDA-induced current by measuring peak current amplitude at 30 uM measured after 15 to 30 mins by patch-clamp method (reference value: 54.6 +/- 4.6 pA). Particulars: Brain, filed as positive allosteric modulator, time 15-30 min. In kind it is tissue-based.

For data set [18] the target is unchanged. Description: Positive allosteric modulation of ICR mouse primary cortical neuron NMDA receptor assessed as potentiation of NMDA-induced current at 10 uM in presence of 30 uM exogenous glycine by whole-cell patch clamp method. The following applies: Brain. In kind it is tissue-based.
Data set [19] relates to Neuron. Description: Effect on AMPA receptor in ICR mouse hippocampal neuron assessed as increase in AMPA-induced current at 30 uM. In kind it is tissue-based.
The subject of data set [20] is Mus musculus. Description: Antidepressant activity in icv dosed CSDS-induced C57BL/6N mouse model assessed as reversal of reduction in CSDS-induced social interaction administered for 10 days by social interaction test. It is filed as functional, organism-based. The following applies: time 10.0 day.

A word on the EC50: it is the concentration that produces a half-maximal response.

Turning to `Cc1cc(C)n(Cc2ccc(C(=O)Nc3ccc(Br)cc3C)o2)n1`, the result (in data set [1]; in [2]; in data set [3]; with Neuron [5]; in data set [8]; in data set [13]) was inactive. Besides, the result (in data set [16]; in data set [18]; in the data set with Neuron [19]) was inactive. In addition, in data set [4], the Kp is 0.661. The result (in data set [6]; with Mus musculus [7]; in data set [14]; with Mus musculus [20]) was Active. The EC50 on Glutamate NMDA receptor [9] was 13.6 µM; at Glutamate NMDA receptor [12] it was 11.8 µM; at Glutamate NMDA receptor [15] it was 8.8 µM. The values for the fold change (FC) in data set [10] and in [11] were 3.8 and 32, respectively. For the same compound, in data set [17], the Activity is 1180 pA.
